Test results as given in patent US8772348B2, “Materials and methods for pest control” (priority 2009, dated 2014).
Read-outs that look alike come from different tables or passages of the source.

Legend:
Aedes aegypti [1] = conditions: filter paper discs, after a 24-hour exposure
Experimental: Briefly, yellow fever mosquito, Ae. aegypti were obtained from strains that have been cultured in the laboratory of the Entomology and Nematology Department, University of Florida.
The mortality rate is measured after a 2-hour, 4-hour and 24-hour exposure period. Ataxic mosquitoes are considered dead.
The ability of Ae. aegypti to recover from insecticidal exposure is also investigated. After a 2-hour exposure, each set of Ae. aegypti is transferred into a separate jar. The mortality rate is measured at two time intervals: first, immediately at the transfer (2 hours after the initial exposure), and second, 22 hours after the transfer (24 hours after the initial exposure).

Musca domestica [2] = conditions: M. domestica; formulation on plywood panels at 1.67 mg cm^−2; mortality 24 h after
Experimental: Briefly, each fly strain is divided into eight sets: three sets as the experiment, four sets as the positive control, and one set as the negative control. Flies are assayed on unpainted plywood panel boards that have been previously exposed to natural summer weather conditions for at least 10 days. […] The positive control set is treated with permethrin, geranyl acetone, rosalva or citronellol. The negative control set is treated with water. The formulation is applied at a uniform rate of 7.5 ml per 225 cm^2, sufficient to cover the entire panel without dripping. Subsequently, the treated panel boards are dried for about an hour.
In each set, 20 adult flies are placed onto the panel boards. Flies are secured with wooden embroidery hoops, covered with a coarse mesh screen cloth previously sprayed with the respective formulation. After 4 hours, flies are transferred into a clean jar. The mortality rate is measured 24 hours after the transfer, and is determined using the same procedures as are illustrated in Example 2.
(§1) Plywood panels (225 cm^2) were treated with chemicals at a rate of 1.67 mgcm^−2. Panels were treated on day 0 and held until exposure on post-treatment day. Mosquitoes were exposed to chemicals for 2 h, and mortality rate was assessed 24 h after initial exposure. Control contained formulation ingredients without semiochemicals.

Musca domestica [3] = conditions: formulation on plywood panels, 3.33 mg cm^−2 (footnote 1.67), 2 h exposure, mortality 24 h after
Experimental: Briefly, after Musca domestica is exposed to formulations at concentration of 3.33 mg cm^−2 for 2 hours, each set is transferred into a separate glass jar, and held for another 24 hours.
as §1, with “of 1.67 mg cm^−2. Panels were” for “of 1.67 mgcm^−2. Panels were”, “0 and was held until” for “0 and held until”

Aedes aegypti [4] = conditions: formulation on plywood panels at 1.67 mg cm^−2, 2 h exposure, mortality 24 h after initial exposure
Experimental: Briefly, after mosquitoes are assayed on unpainted plywood panel boards with formulation at a concentration of 1.67 mg cm^−2 for 2 hours, they are transferred into a separate glass jar, and held for another 24 hours. The mortality rate is measured daily for a continuous 4 days (Day 1 starts at 24 hours after the transfer), as is determined using the same procedures as are illustrated in Example 2.
as §1, with “of 1.67 mg cm^−2. Panels were” for “of 1.67 mgcm^−2. Panels were”, “0 and was held until” for “0 and held until”

CC1(C)CCCC2=C1CC(C=O)CC2 (stereo not drawn) [Cyclemone A, 2-naphthaldehyde, 1,2,3,4,5,6,7,8-octahydro-8,8-dimethyl]
mortality rate (Aedes aegypti [1]): ~100%
% mortality (Musca domestica [2]): 48.20b %
% mortality on various days following treatment (Musca domestica [3]; day 1): 100.00a %
% mortality on various days following treatment (Musca domestica [3]; day 2): 49.25b %
% mortality on various days following treatment (Musca domestica [3]; day 3): 48.25b %
% mortality on various days following treatment (Musca domestica [3]; day 5): 27.75c %
% mortality on various days following treatment (Musca domestica [3]; day 7): 18.75b %
% mortality on various days following treatment (Musca domestica [3]; day 14): 9.00b %
% mortality on various days following treatment (Aedes aegypti [4]; day 1): 100.00a %
% mortality on various days following treatment (Aedes aegypti [4]; day 2): 72.00b %
% mortality on various days following treatment (Aedes aegypti [4]; day 3): 28.0b %
% mortality on various days following treatment (Aedes aegypti [4]; day 4): 13.0b %
